Results as given in patent US10508118B2, “Pyrimidopyrrole compounds, method for preparing the same, pharmaceutical compositions comprising the same and uses thereof” (Xiamen University, priority 2015, dated 2019).
Like-named read-outs stand apart in the source and are kept apart here. Blank lines part the entries; values can stand above or below the molecule they belong to.

Tests used:
Assay type in all cases: cell-based
EML4-ALK-BaF3 = biological target: T1, EML4-ALK-BaF3 (Homo sapiens, UniProt Q9UM73); test: Growth inhibition of EML4-ALK transformed BaF3 cells (MTS); conditions: for IC50: EML4-ALK-BaF3 cells, 48 hours, MTS
T1 construct: expressed in transfected cells; host or cells: Ba/F3 cells; the other entry of the earlier key: EML4 (Q9HC35, Echinoderm microtubule-associated protein-like 4)
Procedure, shortened: (§1)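 Ba/F3 cells (2×10^4/well) in DMEM or RPMI1640 with 10% FBS exposed to 8 compound concentrations (top 10 μM, 1/3 serial dilution, 0.1% DMSO) for 48 h at 37 °C, 5% CO2. Viability by MTS/PES, 1-4 h, OD 490 nm; triplicates. IC50 fitted from inhibition rate.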

EML4-ALK (L1196M)-BaF3 = biological target: T2, EML4-ALK (L1196M)-BaF3 (Homo sapiens, UniProt Q9UM73, L1196M); test: Growth inhibition of EML4-ALK (L1196M) transformed BaF3 cells (MTS); conditions: 48 hours
T2 construct: expressed in transfected cells; host or cells: Ba/F3 cells; the other entry of the earlier key: EML4 (Q9HC35, Echinoderm microtubule-associated protein-like 4)
Procedure, shortened: as §1

NPM-ALK-BaF3 = biological target: T3, NPM-ALK-BaF3 (Homo sapiens, UniProt Q9UM73); test: Growth inhibition of NPM-ALK transformed BaF3 cells (MTS); conditions: 48 hours
T3 construct: expressed in transfected cells; host or cells: Ba/F3 cells; the other entry of the earlier key: NPM1 (P06748, Nucleophosmin)
Procedure, shortened: (§2)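 MTS absorbance at 490 nm, measured 1–4 h after reagent addition, reports growth after 48 h compound exposure (37 °C, 5% CO2) of 2×10^4 cells/well. Eight 1/3-step concentrations from a 10 μM top, 0.1% DMSO; triplicate inhibition relative to vehicle and blank gives IC50.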

wild type BaF3 = test: Growth inhibition of wild type BaF3 cells (broad-spectrum toxicity); conditions: Mus musculus, BaF3, 48 h, MTS
Procedure, shortened: as §2

[1] = Table 11, read-out: EML4-ALK (L1196M) (IC50 nM)
[2] = Table 12, read-out: L1196M (IC50 nM)

Structure (SMILES): COC(=O)c1ccccc1Nc1nc(Nc2ccc(N3CCC(O)CC3)cc2)nc2cc[nH]c12 [IG-3]
IC50 (EML4-ALK-BaF3; Table 11): 2720 nM
IC50 (EML4-ALK (L1196M)-BaF3; [1]): 5040 nM
IC50 (NPM-ALK-BaF3; Table 11): 6930 nM
IC50 (wild type BaF3; Table 11): 6870 nM

Structure (SMILES): COC(=O)c1cccc(Nc2nc(Nc3ccc(N4CCN(C)CC4)cc3OC)nc3cc[nH]c23)c1 [II-1]
IC50 (EML4-ALK-BaF3; Table 11): 1490 nM
IC50 (EML4-ALK (L1196M)-BaF3; [1]): ~2630 nM
IC50 (NPM-ALK-BaF3; Table 11): 1640 nM
IC50 (wild type BaF3; Table 11): ~2710 nM

Structure (SMILES): COC(=O)c1ccccc1Nc1nc(Nc2ccc(N3CCC(N4CCCC4)CC3)cc2OC)nc2cc[nH]c12 [IG-7]
IC50 (EML4-ALK-BaF3; Table 11): 286 nM
IC50 (EML4-ALK (L1196M)-BaF3; [1]): 409 nM
IC50 (NPM-ALK-BaF3; Table 11): 1210 nM
IC50 (wild type BaF3; Table 11): ~994 nM

Structure (SMILES): CSc1ccccc1Nc1nc(Nc2ccc(N3CCC(O)CC3)cc2)nc2cc[nH]c12 [IA-2]
IC50 (EML4-ALK-BaF3; Table 11): 649 nM
IC50 (EML4-ALK (L1196M)-BaF3; [1]): 761 nM
IC50 (NPM-ALK-BaF3; Table 11): 1030 nM
IC50 (wild type BaF3; Table 11): 1520 nM

Structure (SMILES): COc1cc(N2CCN(C)CC2)ccc1Nc1nc(Nc2ccccc2S(=O)(=O)C(C)C)c2[nH]ccc2n1 [ID-1]
IC50 (EML4-ALK-BaF3; Table 11): 477 nM
IC50 (EML4-ALK (L1196M)-BaF3; [1]): 737 nM
IC50 (NPM-ALK-BaF3; Table 11): 796 nM
IC50 (wild type BaF3; Table 11): ~8390 nM

Structure (SMILES): COC(=O)c1ccccc1Nc1nc(Nc2ccc(S(N)(=O)=O)cc2)nc2cc[nH]c12 [IG-4]
IC50 (EML4-ALK-BaF3; Table 11): 5110 nM
IC50 (EML4-ALK (L1196M)-BaF3; [1]): 4940 nM
IC50 (NPM-ALK-BaF3; Table 11): 6100 nM
IC50 (wild type BaF3; Table 11): 8510 nM

Structure (SMILES): COc1cc(N2CCN(C)CC2)ccc1Nc1nc(Nc2ccccc2S(C)(=O)=O)c2[nH]ccc2n1 [IC-1]
IC50 (EML4-ALK-BaF3; Table 11): 3930 nM
IC50 (EML4-ALK (L1196M)-BaF3; [1]): ~7250 nM
IC50 (NPM-ALK-BaF3; Table 11): ~4560 nM
IC50 (wild type BaF3; Table 11): > 10000 nM

Structure (SMILES): CC(C)S(=O)(=O)c1ccccc1Nc1nc(Nc2ccc(N3CCN(C)CC3)cc2)nc2cc[nH]c12 [ID-2]
IC50 (EML4-ALK-BaF3; Table 11): 1170 nM
IC50 (EML4-ALK (L1196M)-BaF3; [1]): 2030 nM
IC50 (NPM-ALK-BaF3; Table 11): ~2850 nM
IC50 (wild type BaF3; Table 11): ~8310 nM

Structure (SMILES): COc1cc(N2CCC(N3CCN(C)CC3)CC2)ccc1Nc1nc(Nc2ccccc2S(C)(=O)=O)c2[nH]ccc2n1 [IC-2]
IC50 (EML4-ALK-BaF3; Table 11): 3680 nM
IC50 (EML4-ALK (L1196M)-BaF3; [1]): ~6860 nM
IC50 (NPM-ALK-BaF3; Table 11): ~4910 nM
IC50 (wild type BaF3; Table 11): ~8770 nM

Structure (SMILES): COC(=O)c1cccc(Nc2nc(Nc3ccc(N4CCC(N5CCN(C)CC5)CC4)cc3OC)nc3cc[nH]c23)c1 [II-2]
IC50 (EML4-ALK-BaF3; Table 11): 1810 nM
IC50 (EML4-ALK (L1196M)-BaF3; [1]): ~2560 nM
IC50 (NPM-ALK-BaF3; Table 11): ~2600 nM
IC50 (wild type BaF3; Table 11): ~3030 nM

Now from value to molecule, other results behind:

IC50 (EML4-ALK-BaF3; Table 12): 330 nM
targeting selectivity (EML4-ALK-BaF3; ratio of IC50 between wild-type BaF3 and ALK transformed BaF3 cells): good targeting selectivity
IC50 (EML4-ALK (L1196M)-BaF3; [2]): 391 nM
IC50 (NPM-ALK-BaF3; Table 12): 829 nM
Structure (SMILES): COc1cc(N2CCC(N3CCN(C)CC3)CC2)ccc1Nc1nc(Nc2ccccc2S(=O)(=O)C(C)C)c2c(ccn2C)n1 [IID-2]
IC50 (wild type BaF3; Table 12): 2910 nM

IC50 (EML4-ALK-BaF3; Table 11): > 10000 nM
IC50 (EML4-ALK (L1196M)-BaF3; [1]): > 10000 nM
IC50 (NPM-ALK-BaF3; Table 11): > 10000 nM
Structure (SMILES): CNc1nc(Nc2ccc(N3CCC(N4CCN(C)CC4)CC3)cc2OC)nc2cc[nH]c12 [IQ-2]
IC50 (wild type BaF3; Table 11): > 10000 nM

IC50 (EML4-ALK-BaF3; Table 12): ~1110 nM
IC50 (EML4-ALK (L1196M)-BaF3; [2]): 1620 nM
IC50 (NPM-ALK-BaF3; Table 12): 1400 nM
Structure (SMILES): COc1cc(N2CCC(N3CCN(C)CC3)CC2)ccc1Nc1nc(Nc2ccccc2SC)c2c(ccn2C)n1 [IIA-2]
IC50 (wild type BaF3; Table 12): ~883 nM

IC50 (EML4-ALK-BaF3; Table 12): 3020 nM
IC50 (EML4-ALK (L1196M)-BaF3; [2]): 4210 nM
IC50 (NPM-ALK-BaF3; Table 12): 4570 nM
Structure (SMILES): CC(C)Sc1ccccc1Nc1nc(Nc2ccc(S(N)(=O)=O)cc2)nc2ccn(C)c12 [IIB-4]
IC50 (wild type BaF3; Table 12): 4880 nM

IC50 (EML4-ALK-BaF3; Table 12): 546 nM
IC50 (EML4-ALK (L1196M)-BaF3; [2]): ~2960 nM
IC50 (NPM-ALK-BaF3; Table 12): 2260 nM
Structure (SMILES): COc1cc(N2CCN(C)CC2)ccc1Nc1nc(Nc2ccccc2S(=O)(=O)C(C)C)c2c(ccn2C)n1 [IID-1]
IC50 (wild type BaF3; Table 12): ~8180 nM

IC50 (EML4-ALK-BaF3; Table 12): 1300 nM
IC50 (EML4-ALK (L1196M)-BaF3; [2]): 1590 nM
IC50 (NPM-ALK-BaF3; Table 12): 1350 nM
Structure (SMILES): COc1cc(N2CCN(C)CC2)ccc1Nc1nc(NCc2ccccc2S(=O)(=O)C(C)C)c2c(ccn2C)n1 [IIL-1]
IC50 (wild type BaF3; Table 12): ~2610 nM

IC50 (EML4-ALK-BaF3; Table 11): > 10000 nM
IC50 (EML4-ALK (L1196M)-BaF3; [1]): > 10000 nM
IC50 (NPM-ALK-BaF3; Table 11): > 10000 nM
Structure (SMILES): CNC(=O)c1ccccc1Nc1nc(Nc2ccc(S(N)(=O)=O)cc2)nc2cc[nH]c12 [IJ-3]
IC50 (wild type BaF3; Table 11): > 10000 nM

IC50 (EML4-ALK-BaF3; Table 12): 8290 nM
IC50 (EML4-ALK (L1196M)-BaF3; [2]): 8990 nM
IC50 (NPM-ALK-BaF3; Table 12): 11800 nM
Structure (SMILES): Cn1ccc2nc(Nc3ccc(N4CCC(O)CC4)cc3)nc(Nc3ccccc3S(C)(=O)=O)c21 [IIC-3]
IC50 (wild type BaF3; Table 12): ~10600 nM

IC50 (EML4-ALK-BaF3; Table 11): 4900 nM
IC50 (EML4-ALK (L1196M)-BaF3; [1]): 4180 nM
IC50 (NPM-ALK-BaF3; Table 11): 8270 nM
Structure (SMILES): COC(=O)c1ccccc1Sc1nc(Nc2ccc(N3CCC(O)CC3)cc2)nc2cc[nH]c12 [IU-3]
IC50 (wild type BaF3; Table 11): 6520 nM

IC50 (EML4-ALK-BaF3; Table 11): > 10000 nM
IC50 (EML4-ALK (L1196M)-BaF3; [1]): > 10000 nM
IC50 (NPM-ALK-BaF3; Table 11): > 10000 nM
Structure (SMILES): CNc1nc(Nc2ccc(N3CCC(O)CC3)cc2)nc2cc[nH]c12 [IQ-3]
IC50 (wild type BaF3; Table 11): > 10000 nM

IC50 (EML4-ALK-BaF3; Table 11): > 10000 nM
IC50 (EML4-ALK (L1196M)-BaF3; [1]): > 10000 nM
IC50 (NPM-ALK-BaF3; Table 11): > 10000 nM
Structure (SMILES): CS(=O)(=O)c1ccccc1CNc1nc(Nc2ccc(N3CCC(O)CC3)cc2)nc2cc[nH]c12 [IN-3]
IC50 (wild type BaF3; Table 11): > 10000 nM

IC50 (EML4-ALK-BaF3; Table 12): ~5750 nM
IC50 (EML4-ALK (L1196M)-BaF3; [2]): 6470 nM
IC50 (NPM-ALK-BaF3; Table 12): > 10000 nM
Structure (SMILES): COC(=O)c1ccccc1Oc1nc(Nc2ccc(N3CCN(C)CC3)cc2OC)nc2ccn(C)c12 [IIN-1]
IC50 (wild type BaF3; Table 12): ~9960 nM
